Reference: patent US20150316568A1, “Method for Screening Lyophilized Parenteral Formulations” (Cubist Pharmaceuticals, Inc., priority 2014, published 2015)

Key:
[1] = X-Ray Powder Diffraction (XRPD) of solid form pre/post lyophilization; format: physicochemical; conditions: crystalline powder before lyophilization
[2] = From the text: 1. […] 2. […] 3. […] 4. […] 5. […] 6. […] 7. […] 8. […] 9. […] 10.

solid form after the lyophilization process (XRPD) [1]	solubility improvement [2]	Structure (SMILES)
semi-crystalline forms		O=C(O)c1cn(C2CC2)c2cc(N3CCNCC3)c(F)cc2c1=O [Ciprofloxacin]
amorphous form	3-4 ×	CN1CCN(c2cc3c(cc2F)c(=O)c(C(=O)O)cn3-c2ccc(F)cc2)CC1 [Difloxacin]
amorphous form	3-4 ×	Fc1ccc([C@@H]2CCNC[C@H]2COc2ccc3c(c2)OCO3)cc1 [Paroxetine]
